According to patent US10392649B2, “Biosensors that detect NAD+” (Oregon Health & Science University, priority 2014, dated 2019):

Assays:
[1] = NAD+ washout (reversibility of binding to purified sensor); conditions: 500 μM NAD+, elution over buffer exchange column
Procedure: Purified sensor (2 μM) was incubated with either 0μ or 500 μM NAD+ in a total of 75 μL and evaluated for its fluorescence excitation and emission spectra. Each sample was then passed over a pre-equilibrated (50 mM Tris pH 7.4, 150 mM NaCl) micro buffer exchange column (Biorad microbiospin P30), washed, and eluted in […] buffer volume for reevaluation of fluorescence.

[2] = Fluorescence lifetime measurements of the sensor; conditions: 488 nm excitation
Procedure: Fluorescence lifetime measurements were performed on a PicoQuant FluoTime 200 time correlated single photon counting instrument (PicoQuant, Berlin), outfitted with a Hamamatsu micro-channel plate detector. Decays were measured with the polarizers at the magic angle and with 16 nm bandpass emission slits. […] Emission from the samples was collected at 525 nm, with an additional 520 nm long-pass filter on the detector side of the sample. The fluorescence decays were fit by means of PicoQuant software, using an exponential decay model [I(t)=Σi-1^nAie^−t/τ^i] where A, is the amplitude of the i^th component, in counts, in the first range fitting channel and τi is the lifetime of the i^th component.

[3] = Fluorescence spectroscopy of purified sensor with NAD+ (cell free); format: binding; conditions: for effect of NAD+ on fluorescence (ex. 488 nm): purified protein, NAD+ concentrations up to 1 mM
Procedure: Fluorescence emission spectra were recorded using a PTI steady-state fluorescence spectrophotometer. Excitation spectra were captured at 530 nm while exciting from 350 to 515 nm. Emission spectra were measured by excitation at 405 nm or 488 nm while scanning the fluorescence intensity of 475 to 600 nm.
The sensors and controls were purified in batch format from mammalian HEK293T cells via their N-terminal Flag epitope tag, using anti-Flag M2 Affinity Gel (Sigma) and lysis buffer (50 mM Tris pH 7.4, 150 mM NaCl, 1 mM EDTA, 10 mM NaF, 0.5% NP-40, 1 mM DTT, and Complete Protease Inhibitor cocktail). Protein was eluted with 500 μg/mL 3× Flag peptide and dialyzed against 100 mM Tris pH 7.4, 150 mM NaCl, 0.5 mM DTT, 100 μM PMSF, 1 mM EDTA, and 50% glycerol. Bradford assays were used to quantify the concentration in each batch and aliquots were flash frozen in liquid nitrogen for storage at −80° C.
(§1) Steady-state fluorescence intensity measurements were performed using a Photon Technology International Quanta Master fluorimeter. Excitation spectra were monitored at 530 nm and emission spectra were measured by excitation at 488 nm and 405 nm. Slit widths used gave 8 nm bandpass for excitation and 44 nm bandpass for emission. Absorbance spectroscopy was performed on a Shimadzu 1601 spectrophotometer. Temperature was controlled with a water jacket and monitored using an Omega Thermistor.

[4] = Calibration of cytoplasmic sensor in digitonin permeabilized HEK293T cells, flow cytometry; format: cell-based
Procedure: The free NAD+ concentration in the nucleus and cytoplasm has been debated. To calibrate the sensor, cells were permeabilized with digitonin to allow internal NAD+ levels to equilibrate with concentrations external to the cell and fluorescence monitored by flow cytometry. Equilibration was assessed using propidium iodide (PI), whose molecular weight is similar to that of NAD+ (FIG. 29). […] The mean of the fluorescence ratio (488/405 nm) for the cytoplasmic sensor in non-permeabilized HEK293T cells relative to cpVenus was interpolated to reveal a free NAD+ value of 105.8 μM (95% Cl, 92.3 μM to 121.7 μM). […] To confirm these calculations, flow cytometry was used to examine the fluorescence of the cytoplasmic sensor in populations of HeLa cells that were partially permeabilized (FIG. 16B). When equilibrated with either 500 μM or 1 mM NAD+, cytoplasmic fluorescence of the permeabilized cell population decreased, indicating an increase in NAD+. In contrast, equilibration with media containing no external NAD+ increased fluorescence, likely due to NAD+ diffusion. […]
(§2) Data was collected on a special order BD LSRFortessa using 488-1 (Ex. 488 nm, Em. 525/50) and 405-2 (ex. 405 nm, Em. 515/20) for the sensor, and Ex. 561-3 (ex. 561, em 670/30) for PI intensity. Cells were gated to exclude debris, a standard doublet-exclusion was performed, and 1×10^4 fluorescent cells were evaluated per condition. […]

HEK293T = experiment: NAD+ depletion by FK866 in HEK293T lines expressing localized sensors, live flow cytometry; format: cell-based; conditions: 10 nM FK866, 18 hours; nuclear, cytoplasmic, mitochondrial sensors
Procedure: (§3) Localization sequences were used to direct the sensor to the nucleus, cytoplasm, and mitochondria (FIG. 15A and FIG. 25A, 25B, 25C). […] Mammalian cells predominantly rely on the NAMPT-dependent salvage pathway for NAD+ biosynthesis (Revollo et al, 2004 supra), and presumably all subcellular compartments would be affected by NAMPT inhibition. To test this idea, clonal HEK293T lines stably expressing the localized sensors or their corresponding cpVenus control were generated. Cells were treated with FK866, a potent inhibitor of NAMPT, and NAD+ depletion in different compartments was monitored by live flow cytometry (FIG. 15B). FK866 increased sensor fluorescence in all compartments, indicating a reduction in NAD+ levels. Fluorescence was also monitored in cells expressing the cytoplasmic sensor using live microscopy (FIG. 15C). […]
as §2, with “condition. Data were analyzed and plotted with FlowJo X. Sensor 488/405 ratiometric values were normalized to the appropriate cpVenus and experimental controls.” for “condition.”

HEK293T cells [5] = experiment: HPLC of perchlorate extracted NAD+ from HEK293T cells; format: cell-based; conditions: 10 nM FK866, 16 hours
Procedure: FIG. 6A is a set of three HPLC spectra from 10 μM purified NAD^+ standard compared to perchlorate extracted NAD^+ from HEK293T cells treated with 0 nM (middle) or 10 nM (bottom) FK866 for 16 hours. Note that NAD^+ is recovered from untreated cells while it is depleted in FK866 treated cells.

HEK293T cells [6] = experiment: NAD+ depletion by FK866 in cells expressing cytoplasmic sensor, live microscopy; format: cell-based
Procedure: as §3, with “15C). Treatment with FK866 began to decrease NAD+ levels in the majority of cells within 1 hour; by 3 hours pockets of NAD+ decreases were observed, which spread throughout the cytoplasm.” for “15C).”
(§4) Live cell imaging was done on a fully motorized Nikon TiE stand with a Yokogawa W1 spinning disk confocal unit. […] Cells were excited at 488 nm and monitored with emission 525/25 nm. For each condition, at least 5 fields containing approximately 50-100 cells were used for quantification of pixel intensity using Metamorph software. […]

NAD+ sensor = molecular target: T1, NAD+ sensor (Enterococcus faecalis, UniProt Q837V6, D286N/K120L); experiment: Specificity of the sensor: fluorescence with related mononucleotides, dinucleotides and NAD+ precursors; format: binding; conditions: purified sensor
T1 construct: HA (N); made in house; host or cells: HEK293T
Procedure: To determine the specificity of the sensor for NAD+, sensor fluorescence was evaluated in the presence of related mononucleotides, dinucleotides, and NAD+ precursors (FIG. 14G). […] Thus, pH effects can be accommodated by normalizing to cpVenus. […] (FIG. 24A, 24B, 24C).
as §1

[7] = Competition for free NAD+ with GAPDH, sensor fluorescence in real time; format: binding; conditions: equimolar GAPDH, absence of substrate, 10 μM NAD+
Procedure: Fluorescence emission of […] purified sensor was monitored at 520 nm following excitation at 488 nm over time. Three 1-second exposures were obtained every 30 seconds at 20° C. in 100 mM HEPES pH7.4, 150 mM NaCl, 10 mM MgCl2. At the 240 timepoint, NAD+ was added to a final concentration of 10 μM; at the 600 second timepoint, full-length active human GAPDH (AbCam) was added to a final concentration of 11.7 μM. Fluorescence measurements were corrected for dilution factor. Mean±SD, n=2.

HeLa cells [8] = experiment: NR in HeLa cells treated with siNAMPT, cytoplasmic sensor; format: cell-based; conditions: NR 1 mM, 24 hours
Procedure: In further experiments, siRNAs that target NAMPT were added to the cells (FIG. 15D). […] Importantly, nicotinamide riboside (NR) increased NAD+ levels in these cells through a parallel pathway that utilizes NR kinase to bypass NAMPT (Bieganowski P and Brenner C, Cell 117, 495-502 (2004); incorporated by reference herein) (FIG. 15E).
Live cell imaging was done on a fully motorized Nikon TiE stand with a Yokogawa W1 spinning disk confocal unit. Instrumentation for this project included a motorized stage in x and y for point-revisiting; z-axis control for fast piezo-based positioning and continuous focus-drift compensation for live cell imaging; dual-pinhole array for improved optical sectioning, a high powered Agilent laser launch; split simultaneous acquisition on two Andor Zyla 5.5 sCMOS cameras; and a 100×1.49 Apo TIRF objective. During imaging, cells were maintained in 5% CO2 at 34° C. Cells were excited at 488 nm and monitored with emission 525/25 nm. For each condition, at least 5 fields containing approximately 50-100 cells were used for quantification of pixel intensity using Metamorph software. The mean intensity per field of each siRNA was normalized to the scramble condition to obtain the normalized intensity measurement.

HeLa cells [9] = experiment: NR rescue of mitochondrial NAD+ in HeLa cells depleted of NMNAT2; format: cell-based; conditions: NR 1 mM, 24 hours, NMNAT2 depletion
Excerpt: To confirm this, HeLa cells, which contain very low levels of NMNAT3, were examined. […] Despite its low expression, NMNAT2 was active in HeLa cells, as its depletion decreased cytoplasmic NAD+ (FIG. 38). […] (FIG. 17B). This depletion was not rescued by addition of NR, implying that cytoplasmic NAD+, and not NMN, is responsible for maintaining mitochondrial NAD+ levels in HeLa cells (FIG. 17B). Thus, there appear to be multiple mechanisms for maintaining mitochondrial NAD+ in different cell types; conversion of NMN by NMNAT3 and active transport of cytoplasmic NAD+. An NAD+ transporter has been identified in bacteria (Haferkamp I et al, Nature 432, 622-625 (2004); incorporated by reference herein), yeast (Todisco S et al, J Biol Chem 281, 1524-1531 (2006); incorporated by reference herein), and plants (Palmieri F et al, J Biol Chem 284, 31249-31259 (2009); incorporated by reference herein), although a mammalian homologue has not yet been identified.
as §4

cytoplasmic sensor = molecular target: T2, cytoplasmic sensor (Enterococcus faecalis, UniProt Q837V6, D286N/K120L); experiment: NR effect on cytoplasmic sensor fluorescence when NMNAT2 was depleted; format: cell-based; conditions: NR 1 mM, 24 hours
T2 construct: expressed in transfected cells; HeLa cells were also used
Excerpt: FIG. 28 is a bar graph showing that Nicotinamide riboside (NR) has no direct effect on the fluorescence of the cytoplasmic sensor. The cytoplasmically-localized sensor reported a decrease of cytoplasmic NAD+ following depletion of NMNAT2.

T1 sequence (Q837V6 other isoform, or with tags, fused parts or gaps K120L/D286N): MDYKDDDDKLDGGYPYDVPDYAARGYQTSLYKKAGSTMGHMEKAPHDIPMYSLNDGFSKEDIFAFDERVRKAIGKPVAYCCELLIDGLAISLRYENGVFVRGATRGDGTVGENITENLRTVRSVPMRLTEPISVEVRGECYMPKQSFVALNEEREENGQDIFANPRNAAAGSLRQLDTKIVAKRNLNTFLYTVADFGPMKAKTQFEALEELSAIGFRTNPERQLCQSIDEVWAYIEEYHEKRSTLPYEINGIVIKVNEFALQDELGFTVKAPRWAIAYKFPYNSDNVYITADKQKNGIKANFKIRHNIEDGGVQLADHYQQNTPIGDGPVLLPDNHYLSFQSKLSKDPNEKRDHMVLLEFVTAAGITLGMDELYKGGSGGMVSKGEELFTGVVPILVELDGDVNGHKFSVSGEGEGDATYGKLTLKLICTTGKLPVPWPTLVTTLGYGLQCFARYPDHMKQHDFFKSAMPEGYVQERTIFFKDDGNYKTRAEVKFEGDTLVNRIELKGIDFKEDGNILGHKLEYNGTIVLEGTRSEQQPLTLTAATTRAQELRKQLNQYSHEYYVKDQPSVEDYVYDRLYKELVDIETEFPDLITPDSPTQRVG
T2 sequence (Q837V6 other isoform, or with tags, fused parts or gaps K120L/D286N): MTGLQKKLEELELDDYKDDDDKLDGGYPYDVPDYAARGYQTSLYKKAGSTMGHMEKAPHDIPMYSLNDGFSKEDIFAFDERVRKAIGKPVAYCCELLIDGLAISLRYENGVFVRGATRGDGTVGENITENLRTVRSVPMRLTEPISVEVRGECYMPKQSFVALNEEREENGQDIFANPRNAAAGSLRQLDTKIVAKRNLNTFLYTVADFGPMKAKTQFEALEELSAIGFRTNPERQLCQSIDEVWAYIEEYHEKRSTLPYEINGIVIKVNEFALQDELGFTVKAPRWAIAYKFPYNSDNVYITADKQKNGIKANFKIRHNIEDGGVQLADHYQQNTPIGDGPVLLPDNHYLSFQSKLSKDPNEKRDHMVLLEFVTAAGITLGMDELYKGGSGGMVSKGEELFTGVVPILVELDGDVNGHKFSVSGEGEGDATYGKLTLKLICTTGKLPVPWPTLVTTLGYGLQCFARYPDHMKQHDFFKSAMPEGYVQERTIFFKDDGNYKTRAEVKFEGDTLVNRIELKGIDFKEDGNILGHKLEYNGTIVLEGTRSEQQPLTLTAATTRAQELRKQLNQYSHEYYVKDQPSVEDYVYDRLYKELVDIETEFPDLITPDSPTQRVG

sensor: NAD+ biosensor polypeptide: FLAG, HA, LigA 78-317 fragment, cpVenus, linker, LigA 2-70 fragment
reversibility of NAD+ binding [1]: reversible | effect of NAD+ on fluorescence lifetime [2]: did not affect | change in the Kd value with temperature ([3]; between 20-37° C.): no significant changes | Kd ([3]; in vitro, purified sensor, 488 nm, read-out: apparent Kd(NAD+)): ~65 µM | NAD+-dependent responses across pH ([3]; pH 6.5-8.0): similar | effect of NAD+ on fluorescence (ex. 488 nm) [3]: decreased | effect of NAD+ binding on second excitation peak at 405 nm ([3]; purified sensor): unaffected

cpVenus: circularly permuted version of Venus fluorescent protein, control
effect of NAD+ on fluorescence in permeabilized cells [4]: minimally affected | effect of NAD+ on fluorescence (ex. 488 nm) [3]: minimally affected

O=C(/C=C/c1cccnc1)NCCCCC1CCN(C(=O)c2ccccc2)CC1 [FK866]
sensor fluorescence in all compartments (indicating reduction in NAD+ levels) (HEK293T): increased | NAD+ recovered by HPLC (HEK293T cells [5]): depleted | time at which NAD+ levels began to decrease in the majority of cells (HEK293T cells [6]): ≤ 1 h

NC(=O)c1ccc[n+]([C@@H]2O[C@H](COP(=O)([O-])OP(=O)(O)OC[C@H]3O[C@@H](n4cnc5c(N)ncnc54)[C@H](O)[C@@H]3O)[C@@H](O)[C@H]2O)c1 [NAD+, nicotinamide adenine dinucleotide]
effect of substrate on sensor fluorescence / recognition by the sensor (NAD+ sensor): decreased sensor fluorescence

GAPDH: full-length active human glyceraldehyde 3-phosphate dehydrogenase (AbCam)
sensor fluorescence upon GAPDH addition [7]: almost immediate recovery of fluorescence

NC(=O)c1ccc[n+]([C@@H]2O[C@H](CO)[C@@H](O)[C@H]2O)c1 [NR, nicotinamide riboside]
NAD+ levels (HeLa cells [8]): increased | rescue of decreased mitochondrial NAD+ (HeLa cells [9]): not rescued | nonspecific effect on sensor fluorescence (cytoplasmic sensor): did not alter | effect of substrate on sensor fluorescence / recognition by the sensor (NAD+ sensor): not recognized
